Data: patent US20230067666A1, “METHOD FOR PREPARING COUMARIN COMPOUNDS SUBSTITUTED BY AMIDOALKYL AT 3-POSITION, THE PRODUCTS AND RELATED INTERMEDIATES THEREOF” (Fosun Orinove PharmaTech, Inc., priority 2019, published 2023)
Values joined by “and” are separate entries in the source; they are usually repeats but may differ in a detail not shown here. Equal values may be shown once.

Tests used:
Assay type in all cases: physicochemical
[1] = powder properties (bulk density, tap density, Carr index, angle of repose)
[2] = particle size distribution (PSD) test
Protocol: In one embodiment, the particle size distribution (PSD) of the crystal form I is determined using a Malvern Mastersizer 2000. The parameters used may be: pump speed: 2500 rpm; dispersant volume: 800 mL; dispersant: water; dispersion medium: 1% Tween 80. Crystal form I is a granular crystal, and the particle size is 50-100 μm observed under a microscope (Nikon Eclipse LV100POL). The particle size distribution (PSD) of the crystal form I was determined using a Malvern Mastersizer 2000. Pump speed: 2500 rpm; Dispersant volume: 800 mL; Shielding degree: 10%-20%; Dispersant: water; Dispersion medium: 1% Tween 80; Background measurement: 12s; Sample measurement: 12s; Measurement cycle: 3.

[3] = thermogravimetric analysis (TGA) test; conditions: heated to 200° C.
Excerpt: Thermogravimetric analysis (TGA) is a common method for determining the thermal stability of compounds. Herein, TGA is also used to determine the hydration state of a compound. The rate of temperature rise during the test have a certain impact on the pattern. For example, an excessively high rate of temperature rise is not conducive to the detection of intermediate products. TGA patterns can be measured, for example, on a model TA TGA Q500 instrument. In one embodiment, the thermogravimetric analysis pattern of the crystal form I is determined by the following method: TGA thermogravimetric analyzer: TA TGA Q500; temperature range: room temperature ˜350° C.; scanning rate: 10° C./min; protective gas: nitrogen; flow rate: 40 mL/min (balance) or […] (sample). TGA Thermogravimetric Analyzer: TA TGA Q500, temperature range is from room temperature to 350° C., scanning rate is 10° C./min, the protective gas is nitrogen, and the flow rate is 40 mL/min (balance) or 60 mL/min (sample).

[4] = test of stability against mechanical treatment (grinding, XRPD); conditions: ground in a mortar for 2 min and 5 min
Protocol: In one embodiment, the stability of the crystal form I against mechanical treatment is determined by the following method: the crystal form I is placed in a mortar, ground for 2 min and 5 min respectively, and XRPD detection is carried out to analyze the solid after grinding. The crystal form I was placed in a mortar, ground for 2 min and 5 min, respectively, and XRPD detection was carried out to analyze the solid after grinding.

[5] = crystal form I stability test (HPLC purity and XRPD after storage); conditions: for chemical and physical stability (result in words): 40° C./75% RH and 60° C. for 14 days, HPLC purity and XRPD
Protocol: X-ray powder diffractometer: Bruker D8 advance X, the radiation source is Cu-Ku, the scanning range of the test is 3° (2θ)˜40° (2θ), the scanning step size is 0.02° (2θ), and the scanning rate is 0.3 sec/step. HPLC (purity determination): Waters Acquity Arc liquid chromatography system or any equivalent; Column: EclipsexDB C18, 4.6×150 mm, 3.5 μm, or any equivalent; Column temperature: 30° C.; detection wavelength: 210 nm; mobile phase A: 0.05% trifluoroacetic acid aqueous solution; mobile phase B: 0.05% trifluoroacetic acid acetonitrile solution; concentration gradient running time: 20 minutes. Two samples of the crystal form I were placed under the conditions of 40° C./75% relative humidity (RH), and the temperature in the oven was 60° C. (with humidity not controlled) for 14 days.

[6] = dynamic vapor sorption (DVS) test; conditions: for hygroscopicity (result in words): DVS
Excerpt: Dynamic Vapor Sorption (DVS) is a common method to investigate the moisture adsorption of drugs, excipients or packaging materials through a dynamically accelerated moisture adsorption process. The moisture adsorption isotherm is usually used to describe the degree of correlation between the moisture content of the sample and the relative humidity during the moisture adsorption process of the sample. DVS patterns can be measured, for example, on a model IGAsorp instrument. In one embodiment, the dynamic vapor sorption pattern of the crystal form I is determined by the following method: DVS dynamic vapor sorption instrument: IGAsorp; temperature: 25° C.; temperature stability: 0.1° C./min; carrier gas: nitrogen; flow rate: 250 mL/min; scanning: 2; minimum time: 30 min; maximum time: 2 hours; upper waiting limit: 98%; humidity gradient: adsorption: 0, 10, 20, 30, 40, 50, 60, 70, 80, 90; desorption: 80, 70, 60, 50, 40, 30, 20, 10, 0. DVS Dynamic Vapor Sorption Apparatus: IGAsorb, the temperature is 25° C., the temperature stability: 0.1° C./min, the carrier gas is nitrogen, the flow rate is 250 mL/min, scanning: 2, the minimum time is 30 min, the maximum time is 2 hours, the upper waiting limit is 98%, humidity gradient: adsorption: 0, 10, 20, 30, 40, 50, 60, 70, 80, 90; desorption: 80, 70, 60, 50, 40, 30, 20, 10, 0.

[7] = Malvern Mastersizer 2000, dispersant water, 1% Tween 80

Carr index [1]: 20%
angle of repose [1]: 30.6 °
bulk density [1]: 0.72 g/mL
fluidity (result in words) [1]: very good
tap density [1]: 0.90 g/mL
D(0.1) [2, 7]: 67.1 μm
D(0.5) [2, 7]: 115.5 μm
D(0.9) [2, 7]: 206.4 μm
particle size observed under a microscope ([2]; Nikon Eclipse LV100POL): 50-100 μm
weight loss (TGA) [3]: about 0.017%
crystal form after grinding (XRPD) [4]: the crystal form does not change
chemical and physical stability (result in words) [5]: good chemical and physical stability
chemical and physical stability (result in words) ([5]; listed as Orin1001 crystal form I): excellent stability
HPLC purity: peak area % ([5]; 40° C./75% RH, the 7th day): 99.62% and 99.54%
HPLC purity: peak area % ([5]; 40° C./75% RH, the 14th day): 99.54% and 99.56%
HPLC purity: peak area % ([5]; 60° C. (in oven), humidity not controlled, the 7th day): 99.64% and 99.58%
HPLC purity: peak area % ([5]; 60° C. (in oven), humidity not controlled, the 14th day): 99.52% and 99.54%
HPLC purity: peak area % ([5]; TO column of the 7th day table): 99.60% and 99.58%
HPLC purity: peak area % ([5]; TO column of the 14th day table): 99.53% and 99.54%
hygroscopicity (result in words) ([6]; 25° C.): only slightly hygroscopic
hygroscopicity (result in words) ([6]; 25° C., listed as Orin1001 crystal form I): slightly hygroscopic
crystal form after DVS measurement (XRPD) ([6]; XRPD before and after DVS): did not change
weight gain (DVS) ([6]; after equilibration at 90% relative humidity, 25° C.): 0.34%
SMILES: COc1cc2c(C)c(CC(=O)N3CCOCC3)c(=O)oc2c(C=O)c1O [crystal form I]
